# Measured values from a melting point compilation (Tetko et al.; mined from patent text by program, amines drawn as free bases though some values may be those of a salt).
row,SMILES,melting point [°C]
1,CNC(=O)NCCn1c(-c2ccc(CN3CCOCC3)cc2)csc1=Nc1ccc(F)c(C)c1,142 to 145
2,Nc1c(C(=O)O)cnn1-c1ccc(C(F)(F)F)cc1,169 to 171
3,CCCN(CCC)C1Cc2cccc3nc(SC)n(c23)C1 (centres undefined),49 to 52
4,C[N+]([O-])=C(Cn1ccnc1)c1ccco1,120 to 123
5,CC(C)(C)c1ccc(OC(=O)n2c3c(c(=O)n(C4CCCCO4)c2=O)CCC3)cc1 (centres undefined),135
6,CC1=Cc2ccc(Cl)cc2C(c2ccc([N+](=O)[O-])c(C)c2)=NN1C(=O)NC1CC1,221 to 223
7,O=S(c1ncccn1)c1cccc2cccnc12 (centres undefined),152 to 155
8,CN(C)c1ccc(-c2nc3c(N[C@H]4[C@@H](C(N)=O)[C@@H]5C=C[C@H]4C5)c(Br)cnc3[nH]2)cc1,264 to 265
9,CCOC(=O)c1cccc(-c2cc3c(O)ncnc3[nH]2)c1,> 250
10,Cn1nc(Cl)c(Cl)cc1=O,97
11,N#Cc1ccc2[nH]cc([C@H]3CC[C@@H](N4CC(Oc5cccc(F)c5)C4)CC3)c2c1,187 to 190
12,CC(C)(C(=O)O)c1ccc(CCNC(=O)c2ccc(Cl)cc2)cc1,234 to 235
13,Cc1c(O)c(Cl)cc(Cl)c1C(=O)O,135
14,CCCCc1nc(SCCO)c(C(=O)O)n1Cc1ccc(-c2ccccc2C(=O)O)cc1,194
15,Cn1cc(C(=O)Nc2ccccc2-c2cc(Cl)cc(Cl)c2)c(C(F)(F)F)n1,101 to 105
16,O=[N+]([O-])c1cc2c(Nc3ccc(F)c(Cl)c3)ncnc2cc1OCC1CC1,204
17,O=C1CNc2c(Cl)cccc2N1,191 to 193
18,CCOC(=O)c1nnc(-c2ccccc2)cc1-c1cccc([N+](=O)[O-])c1,121 to 122
19,CCOC(=O)Oc1ccc(C(=O)Oc2ccc(C#N)cc2)cc1,145
20,CCNC(=S)NC1=Nc2ccccc2CS1,191 to 196
21,O=C(Cc1cccs1)NC1CN(C(C(=O)O)c2ccc(OC(=O)c3ccccc3)cc2)C1=O (centres undefined),129 to 131
22,O=C1NC(O)C2CN(Cc3ccccc3)CC12 (centres undefined),138
23,CN(C)S(=O)(=O)n1cc(C(=O)c2c(Cl)cc(Cl)cc2Cl)nc1C#N,142 to 150
24,O=C(c1ccc(F)cc1)N1CCC[C@H](c2nc(-c3ccncc3)no2)C1,113 to 115
25,CC(=O)OCC1OC(OC(C)=O)C(O)C(OC(C)=O)C1OC(C)=O (centres undefined),163 to 165

row,SMILES,melting point [°C]
1,CCCCCCCCCCCCCCCCCC(=O)Nc1cccc(C(=O)N(CC(=O)O)CC(=O)O)c1,132 to 142
2,CCc1cc2c(C(=O)O)ccc(OC)c2o1,215 to 216
3,CCc1cc(C(F)(C(F)(F)F)C(F)(F)F)cc(C)c1NC(=O)c1cccc(N)c1,143 to 145
4,CC(C)(C)c1cc(C(=O)OCCc2ccc([N+](=O)[O-])cc2)cc(C(C)(C)C)c1O,124
5,CCC(Oc1ccc(C(C)(C)CC)cc1C(C)(C)CC)C(=O)Nc1cc(O)c(NC(=O)c2ccccc2)cc1Cl (centres undefined),190 to 191
6,C=C(C(=O)c1ccc(C(=O)OC)cc1)c1cc(OC)c(OC)c(-c2cccs2)c1,102 to 103
7,CCc1noc(-c2ncn(-c3cccc(Cl)c3)c2COC)n1,125 to 126
8,O=C1CSCC2=C1C(c1ccc(F)c(Br)c1)n1nccc1N2 (centres undefined),160 to 163
9,CCOC(=O)CCc1csc2c(C(=O)OCC)c(=O)c3cc(F)c(Cl)cc3n12,200
10,COc1cc(C2=C(c3cn(CCCNC(=O)C(CO)NC(=O)OC(C)(C)C)c4ccccc34)C(=O)NC2=O)cc(OC)c1OC (centres undefined),112 to 114
11,COc1ccccc1SC(c1ccccc1)c1c(O)cc(-c2ccccc2)oc1=O (centres undefined),165 to 170
12,FC(F)(F)c1cccc(C(Cl)(Cl)Cl)c1Cl,32 to 33
13,CC(c1oc2ccccc2c(=O)c1-c1cccc(F)c1)n1nc(-c2ccc(F)c(O)c2)c2c(N)ncnc21 (centres undefined),241 to 244
14,COCCc1ccc(OCC(O)CO)cc1 (centres undefined),25
15,O=C(c1ccc(F)cc1)C1CCN(CCCC2(c3ccc(F)cc3)OCCO2)CC1,62 to 64
16,Cc1oc(-c2ccccc2)nc1CCc1ccc(/C=C/C=C/C=O)cc1,107 to 108
17,CN(C(=O)N1CCOCC1)c1ccc(OCC(=O)N[C@@H](CC(N)=O)C(=O)N[C@@H](Cc2ccccc2)[C@H](O)C(=O)N2CCC[C@H]2C(=O)NC(C)(C)C)cc1,112 to 114
18,CC(=O)N1CCCC2=C1CCc1cc(Cl)c(Cl)cc12,146 to 148
19,N#CNC(=S)Nc1cccc(Cl)c1,258 to 260
20,O=C1NCC[C@H](c2ccc(C(F)(F)F)cc2)[C@@H]1c1ccccc1 (relative stereo),155 to 156
21,COCCc1nc2c(N)nc3cc(-c4cccc(CO)c4)ccc3c2n1CC(C)(C)O,212 to 213
22,CC(=O)Nc1cccc(-c2csc(NC(N)=S)n2)c1C,228 to 230
23,Cc1ccc(S(=O)(=O)Oc2ccc3c4c(nn3CCCN)-c3cnccc3C(=O)c24)cc1,211 to 213
24,CC1(C)OC(=O)Nc2c(O)cc(-c3cc(F)cc(C#N)c3)cc21,197 to 198
25,COc1ccc(-c2ccc3cc(C(=O)O)ccc3c2)cc1C12CC3CC(CC(C3)C1)C2,321

row,SMILES,melting point [°C]
1,COc1cc(COc2nn(-c3ccccc3)cc2Cn2cncn2)ccc1OCc1nc(-c2ccco2)oc1C,149 to 150
2,OCCCc1cn(-c2ccc(C(F)(F)F)cn2)nc1C1CCCCC1,106 to 107
3,O=C(Nc1cccc2[nH]ccc12)c1ccc(Cl)cc1OCC1CO1 (centres undefined),194
4,O=C(O)CCCCCCCCCCCCCCCCCCCCC(=O)ON1C(=O)CCC1=O,122 to 124
5,Cn1c(=O)[nH]c2nccnc2c1=O,342 to 343
6,CCCCCc1csc(-c2ccc3c(c2)C=C(C(=O)Nc2ccc(CN(C)C4CCOCC4)cc2)CCS3(=O)=O)c1,204 to 206
7,C=CCn1c(N)cc(=O)n1-c1ccccc1,184 to 185
8,CC(C)(C)C(=O)Nc1ccc2oc3c(c2c1)CCCCCC3,189 to 190
9,CCCCCCCCCn1ccc(C#N)cc1=O,46 to 48
10,Cc1cc(C=Cc2ccccc2OCC(O)CNC(C)(C)C)on1 (centres undefined),83 to 85
11,CCOC(=O)c1cn(Cc2ccccc2OC)c2c(F)c(F)c(F)cc2c1=O,203 to 204
12,CC1(N)CN(c2c(F)cc3c(=O)c(C(=O)O)cn(-c4nc(N)c(F)cc4F)c3c2Cl)C1,280
13,CC(C)(C)OC(=O)N1CCCN(c2nc3ccccc3[nH]2)CC1,225 to 226
14,N#Cc1c(Cl)ccc(C(=O)O)c1Cl,230 to 232
15,COc1ccc(-c2ccc(C)cn2)c(F)c1F,73
16,O=S1(=O)NCCCN1CCc1ccncc1,124 to 125
17,CC(=O)c1coc2cc(NS(C)(=O)=O)c(Oc3ccccc3)cc2c1=O,175 to 177
18,COc1ccc2c(c1)Cc1ccc(C(=O)O)cc1O2,259 to 261
19,c1ccc(-c2cc(-c3c[nH]nc3-c3ccccn3)ccn2)cc1,148
20,CC1(C)Oc2cc(N)c([N+](=O)[O-])cc2[C@@H](N2CCCC2=O)[C@@H]1O (relative stereo),310 to 313
21,O=Cc1ccc(F)cc1-c1noc2ccc(F)cc12,165 to 166
22,Cn1ncnc1COc1nn2c(-c3ccc(F)cc3F)nncc2c1C(C)(C)C,118
23,COC(=O)Nc1c(C#N)cnn1-c1ccc(Cl)c(Cl)c1Cl,205 to 207
24,O=C(CN1CCNCC1)Nc1ccc2c(c1)C(=O)c1cc(NC(=O)CN3CCNCC3)ccc1C2=O,173
25,O=C(NC1=NN(c2ccccc2)C(c2ccccc2)C1)C(F)(F)F (centres undefined),152 to 154

row,SMILES,melting point [°C]
1,O=C(CC1CCCC1)Nc1c(C(O)(C(F)(F)F)C(F)(F)F)ccc2ccccc12,144 to 145
2,CC(C)(C)c1cc(-c2c(S)ssc2=S)cc(C(C)(C)C)c1O,182
3,CC1(C)c2ccccc2C(C)(C)N1Cc1ccccc1,61 to 61.4
4,CCCc1c(OCCCCCCc2cccc(OCCCCCCCC(=O)O)c2CCC(=O)O)ccc2c1OCCC2=O,79 to 81
5,COc1cc2c3c(ccc(N)c3c1N)C(=O)N(O)C2=O,317 to 318
6,CCOc1nn(Cc2ccnc(OCc3cn4c(-c5ccccc5)cccc4n3)c2)cc1CCC(=O)O,177 to 178
7,O=S(=O)(Nc1cc(Br)nc(Br)c1)c1cccc(Cl)c1,187 to 189
8,Cc1nc(C(F)(F)F)ccc1/C=C/C(=O)Nc1ccc2ncsc2c1,196
9,Cc1ccc(CCN2CCN(c3noc4ccccc34)CC2)c2c1C(C)(C)CC(=O)N2,170
10,O=[N+]([O-])c1nccn1C1CCCCC1O (centres undefined),141
11,CCCCCCCCCCCCCC(=O)NC1CC(C)(C)N(CC#N)C(C)(C)C1,106
12,CC(F)c1nc2ncnn2c(NC2CCC(C(C)(C)C)CC2)c1Cl (centres undefined),138 to 139
13,Cc1ccc(Nc2ccc(OC(F)(F)F)cc2)cc1,43.7
14,COc1ccc(C(=O)c2ccccc2F)c(Cl)c1,77 to 79
15,CN(C)CCCOc1ccnc2cc([N+](=O)[O-])ccc12,146 to 149
16,Cc1nc(NC(=O)c2cnn3c(C(F)(F)F)cc(-c4ccc(C(F)(F)F)cc4)nc23)sc1S(=O)(=O)N1CCC(O)C1 (racemic),300
17,CC(O)Cc1ccc2oc(=O)[nH]c2c1 (centres undefined),133 to 134
18,CC(C)N(Cc1nc(-c2ncn3c2CN(C)C(=O)c2ccccc2-3)no1)C(C)C,117 to 119
19,CCOC(=O)c1c(Cl)c(CC)c(C)[nH]c1=O,167
20,CC(C)(C)OC(=O)N1CCC(Cc2cn(S(=O)(=O)c3ccccc3)c3ccc(F)cc23)CC1,155 to 157
21,CC(CS)C(=O)N1CCC=C1C(=O)O (centres undefined),112 to 114
22,CCCc1c2occ(C(=O)O)cc-2c(=O)c2cc(C(=O)O)sc12,> 250
23,CCOc1nc(NCc2ccco2)nc(Nc2ccc(O)cc2)n1,45
24,COC(=O)CC(=O)C=Cc1cc2ccccc2s1,105 to 107
